Data on one molecule can be found in paper PMC5065787 (Bioorganic & medicinal chemistry, 2016).

Where a chain is given by its changes, count along the chain named.

One test deals with T1, h15-LOX-1 F414I (Homo sapiens, UniProt P16050, F414I).
T1 sequence (P16050 1-662 F414I): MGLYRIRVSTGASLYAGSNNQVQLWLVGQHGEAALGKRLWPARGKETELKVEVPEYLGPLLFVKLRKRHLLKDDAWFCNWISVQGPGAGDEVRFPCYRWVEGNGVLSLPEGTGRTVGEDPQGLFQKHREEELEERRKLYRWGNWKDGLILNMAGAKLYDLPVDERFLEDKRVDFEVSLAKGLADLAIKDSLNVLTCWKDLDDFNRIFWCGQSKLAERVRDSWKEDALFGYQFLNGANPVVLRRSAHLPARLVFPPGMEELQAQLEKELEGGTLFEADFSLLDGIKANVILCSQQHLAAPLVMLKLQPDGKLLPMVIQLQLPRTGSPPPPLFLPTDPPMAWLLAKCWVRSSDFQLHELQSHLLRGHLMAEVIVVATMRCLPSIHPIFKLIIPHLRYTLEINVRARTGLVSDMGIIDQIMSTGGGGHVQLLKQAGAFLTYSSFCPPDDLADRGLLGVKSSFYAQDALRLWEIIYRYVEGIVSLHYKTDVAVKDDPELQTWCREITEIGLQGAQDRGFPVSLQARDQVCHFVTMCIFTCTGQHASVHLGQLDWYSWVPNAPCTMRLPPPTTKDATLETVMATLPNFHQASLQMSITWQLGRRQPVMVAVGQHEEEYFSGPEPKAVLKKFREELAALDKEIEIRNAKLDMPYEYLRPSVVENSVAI
Kind of test: Steady-state substrate kinetics, F414I. The format is biochemical. The following applies: error in parentheses, no unit in table (sec^−1).

Another test has as its target T2, h15-LOX-1 E356Q (Homo sapiens, UniProt P16050, E356Q).
T2 sequence (P16050 1-662 E356Q): T1 sequence (P16050 1-662 F414I) with E356Q, I414F
The experiment in a line: Steady-state substrate kinetics, E356Q. The format is biochemical. The note with it: error in parentheses, no unit in table (sec^−1).

As to `CCCCC/C=C\C/C=C\C/C=C\C/C=C\CCCC(=O)O` [AA, arachidonic acid], the kcat was 1.8 (0.05) at h15-LOX-1 F414I and 3.0 (0.1) at h15-LOX-1 E356Q.
